Assay results published in patent US20160296529A1, “AMINOTRIAZOLOPYRIDINE FOR USE IN THE TREATMENT OF INFLAMMATION, AND PHARMACEUTICAL COMPOSITIONS THEREOF” (priority 2012, published 2016).

Columns and labels:
hepatocytes of rat = experiment: In vitro metabolism study in hepatocytes, rat; type: in vitro ADME; conditions: rat hepatocyte suspension, 24 h incubation of 100 μM [14C]-Formula II
Method: (§1) Hepatocyte stability (Concentrations of the compound according to Formula II and its main metabolites (as % of total radioactivity) after 24 h incubation of 100 μM [^14C]-Compound according to Formula II in hepatocyte suspension of different species)

hepatocytes of dog = experiment: In vitro metabolism study in hepatocytes, dog; type: in vitro ADME; conditions: dog hepatocyte suspension, 24 h incubation of 100 μM [14C]-Formula II
Method: as §1

hepatocytes of human = experiment: In vitro metabolism study in hepatocytes, human; type: in vitro ADME; conditions: human hepatocyte suspension, 24 h incubation of 100 μM [14C]-Formula II
Method: as §1

[1] = Single dose pharmacokinetics in animals, rat; type: in vivo, Sprague-Dawley rats
Method: Pharmacokinetic studies were performed in various animal species dosed with the compound according to Formula II to determine the exposure to the compound according to Formula I as well as its apparent terminal half life (T1/2), when possible. […]
(§2) Temperature was maintained at approximately 22° C., and food and water were provided ad libitum.
The compound according to […] was formulated in 0.5% methylcellulose and dosed orally to 3 or 6 animals as a single esophageal gavage at dose ranging from 15 to 180 mg/kg under a dosing volume of 5 or 10 mL/kg.
(§3) The compound according to Formula II was formulated in 0.5% methylcellulose and dosed orally to 3 animals (or 3 mouse/time points) as a single esophageal gavage at dose ranging from 15 to 45 mg/kg under a dosing volume of 5 or 10 mL/kg.
(§4) Blood samples were collected over a 24-h period via the jugular vein (dog, minipig), ear blood vessel (rabbit), cardiac puncture (mouse) or retro-orbital sinus (rat) with lithium heparin as anti-coagulant. Whole blood samples were centrifuged and the resulting plasma samples were stored at −20° C. pending analysis.
(§5) Plasma concentrations of the compound according to Formula I and of the compound according to Formula II were determined by an LC-MS/MS method with a limit of quantification ≦10.0 ng/mL for both Formula I and Formula II for all species.
(§6) Pharmacokinetic parameters were calculated using a statistical analysis package (WinNonLin (Pharsight, Sunnyvale, Calif.: CA 94086, USA).

[2] = Single dose pharmacokinetics in animals, dog; type: in vivo, Beagle dogs
Method: (§7) Pharmacokinetic studies were performed in various animal species dosed with the compound according to Formula II to determine the exposure to the compound according to Formula I as well as its apparent terminal half life (T1/2), when possible.
(§8) Sprague-Dawley rats (male, 200-250 g), CD1 mice (male, 25-30 g), Beagle dogs (male, 9-10 kg), Göttingen minipigs (male, 10-15 kg) and New Zealand White rabbits (male, 3-5 kg) were acclimatized for at least 7 days before treatment and were kept on a 12 hr light/dark cycle (07 h00-19 h00).
Temperature was maintained at approximately 22° C., and food and water were provided ad libitum. […]
as §3, §4, §5, §6

[3] = Single dose pharmacokinetics in animals, minipig; type: in vivo, Göttingen minipigs; conditions: after Formula II 30 mg/kg oral; for AUC: male, Göttingen, plasma, read-out: exposure (expressed as AUC)
Method: as §7, §8, §2, §3, §4, §5, §6

[4] = Single dose pharmacokinetics in human; type: in vivo; conditions: for Ratio I/II of exposure (AUC Formula I : AUC Formula II) / AUC: human; for half-life: oral, human plasma, single dose (10-200 mg) of Formula II as capsules, read-out: mean apparent terminal elimination half-life; for AUC: plasma, po, capsules, read-out: exposure (expressed as AUC)
Method: Serial blood samples were collected over 72 h to determine plasma concentrations of the compounds according to Formula II and Formula I using a validated liquid chromatography-mass spectrometry/mass spectrometry (LC-MS/MS) method with a limit of quantification of 1.00 ng/mL. PK parameters were assessed using a statistical analysis package (WinNonLin (Pharsight, Sunnyvale, Calif.: CA 94086, USA).
(§9) Mean plasma concentration-time profiles of the compound according to Formula II and the compound according to Formula I were measured.
In order to show the comparative exposures of the two compounds, the AUC of the compounds according to Formula I and the compound according to Formula II were calculated. The AUC value represents the total exposure of the compound in the species after dosing. These values were then expressed as a ratio of AUC of the compound according to Formula I: AUC of the compound according to Formula II in FIG. 4. From this ratio it can clearly be seen that there was a significant difference in exposure to a compound according to Formula I after administration of a compound according to Formula II in human compared to the exposure seen in animals for therapeutically equivalent doses. Without wanting to be bound by theory, it was believed that this difference was related to the difference in the apparent terminal half-life in the different species.

[5] = Repeated dose pharmacokinetics in human; type: in vivo; conditions: for Ratio I/II (AUC Formula I : AUC Formula II) / AUC: human, steady state; for half-life at 10 days: oral, human plasma, repeated dose of Formula II (25-100 mg BID or 200-450 mg QD) for 10 days, read-out: mean apparent terminal elimination half-life; for AUC: plasma, po, read-out: Exposure (expressed as AUC)
Method: Subjects received repeated dose (25, 50 and 100 mg BID or 200, 300 and 450 mg QD) of the compound according to Formula II as capsules after a standard breakfast for 10 days.
Serial blood samples were collected over 12 h (BID regimen) or 24 h (QD regimen) on day 1 and 10 to determine plasma concentrations of the compounds according to Formula II and Formula I using a validated liquid chromatography-mass spectrometry/mass spectrometry (LC-MS/MS) method with a limit of quantification of 1.00 ng/mL for both Formula. PK parameters were assessed using a statistical analysis package (WinNonLin (Pharsight, Sunnyvale, Calif.: CA 94086, USA).
as §9
In order to show the comparative exposures of the two compounds, the AUC of the compounds according to Formula I and the compound according to Formula II were calculated. The AUC value represents the steady state exposure of the compounds after repeated dosing. The ratio of AUC of the compound according to Formula I:AUC of the compound according to Formula II is display in Table VII.

[6] = male, Sprague-Dawley, plasma, after Formula II 45 mg/kg oral, read-out: exposure (expressed as AUC)
[7] = male, Beagle, plasma, after Formula II 15 mg/kg oral, read-out: exposure (expressed as AUC)
[8] = after Formula II 10 mg single dose
[9] = after Formula II 25 mg single dose
[10] = after Formula II 50 mg single dose
[11] = after Formula II 100 mg single dose
[12] = after Formula II 200 mg single dose

Nc1nc2cccc(-c3ccc(CN4CCS(=O)(=O)CC4)cc3)n2n1 [Formula I, 5-[4-(1,1-Dioxothiomorpholin-4-ylmethyl)-phenyl]-[1,2,4]triazolo[1,5-a]pyridin-2-ylamine]
In vitro metabolic profile of Formula II (as % of total radioactivity) (hepatocytes of rat): 12%
In vitro metabolic profile of Formula II (as % of total radioactivity) (hepatocytes of dog): 5.7%
In vitro metabolic profile of Formula II (as % of total radioactivity) (hepatocytes of human): 11%
In vitro metabolic profile of Formula II (as % of total radioactivity) (hepatocytes of human; listed as drawing 11): 11.2%
half-life ([1]; Sprague-Dawley, plasma, 20 mg/kg, administration of Formula I, oral, read-out: Apparent terminal half life (converted)): 7 h
AUC ([1]; Sprague-Dawley, plasma, female, Formula I 20 mg/kg single oral dose, read-out: AUC): 25200 ng·h/mL
AUC ([1]; Sprague-Dawley, plasma, female, Formula I 60 mg/kg single oral dose, read-out: AUC): 123000 ng·h/mL
AUC ([1]; Sprague-Dawley, plasma, female, Formula I 180 mg/kg single oral dose, read-out: AUC): 541000 ng·h/mL
AUC ([1]; Sprague-Dawley, plasma, male, Formula I 20 mg/kg single oral dose, read-out: AUC): 19700 ng·h/mL
AUC ([1]; Sprague-Dawley, plasma, male, Formula I 60 mg/kg single oral dose, read-out: AUC): 102000 ng·h/mL
AUC ([1]; Sprague-Dawley, plasma, male, Formula I 180 mg/kg single oral dose, read-out: AUC): 376000 ng·h/mL
Ratio I/II of exposure (AUC Formula I : AUC Formula II) ([1]; after Formula II 45 mg/kg oral): 0.40
AUC [1, 6]: 13300 ng·h/mL
half-life ([2]; Beagle, plasma, 10 mg/kg, male, administration of Formula I, oral, read-out: Apparent terminal half life (converted)): 9 h
AUC ([2]; Beagle, plasma, male, Formula I 10 mg/kg single oral dose, read-out: AUC): 49400 ng·h/mL
AUC ([2]; Beagle, plasma, male, Formula I 25 mg/kg single oral dose, read-out: AUC): 114000 ng·h/mL
AUC ([2]; Beagle, plasma, male, Formula I 50 mg/kg single oral dose, read-out: AUC): 290000 ng·h/mL
Ratio I/II of exposure (AUC Formula I : AUC Formula II) ([2]; after Formula II 15 mg/kg oral): 0.24
AUC [2, 7]: 10600 ng·h/mL
Ratio I/II of exposure (AUC Formula I : AUC Formula II) [3]: 0.88
AUC [3]: 16700 ng·h/mL
apparent terminal half life in human relative to the other animal species ([4]; human vs other animal species, in vivo): at least 3 fold
Ratio I/II of exposure (AUC Formula I : AUC Formula II) [4, 8]: 22.58
Ratio I/II of exposure (AUC Formula I : AUC Formula II) [4, 9]: 21.81
Ratio I/II of exposure (AUC Formula I : AUC Formula II) [4, 10]: 19.86
Ratio I/II of exposure (AUC Formula I : AUC Formula II) [4, 11]: 15.92
Ratio I/II of exposure (AUC Formula I : AUC Formula II) [4, 12]: 12.8
half-life [4]: 21 to 27 h
AUC [4, 8]: 2890 ng·h/mL
AUC [4, 9]: 7220 ng·h/mL
AUC [4, 10]: 14600 ng·h/mL
AUC [4, 11]: 26900 ng·h/mL
AUC [4, 12]: 57600 ng·h/mL
Ratio I/II (AUC Formula I : AUC Formula II) ([5]; Formula II 25 mg BID): 24.4
Ratio I/II (AUC Formula I : AUC Formula II) ([5]; Formula II 50 mg BID): 20.5
Ratio I/II (AUC Formula I : AUC Formula II) ([5]; Formula II 100 mg BID): 18.3
Ratio I/II (AUC Formula I : AUC Formula II) ([5]; Formula II 200 mg QD): 16.1
Ratio I/II (AUC Formula I : AUC Formula II) ([5]; Formula II 300 mg QD): 15.0
Ratio I/II (AUC Formula I : AUC Formula II) ([5]; Formula II 450 mg QD): 10.1
half-life at 10 days [5]: 22 to 27 h
AUC ([5]; Formula II 25 mg BID): 8660 ng·h/mL
AUC ([5]; Formula II 50 mg BID): 15200 ng·h/mL
AUC ([5]; Formula II 100 mg BID): 41100 ng·h/mL
AUC ([5]; Formula II 200 mg QD): 70000 ng·h/mL
AUC ([5]; Formula II 300 mg QD): 66100 ng·h/mL
AUC ([5]; Formula II 450 mg QD): 102000 ng·h/mL

O=C(Nc1nc2cccc(-c3ccc(CN4CCS(=O)(=O)CC4)cc3)n2n1)C1CC1 [Formula II, Cyclopropanecarboxylic acid {5-[4-(1,1-dioxo-thiomorpholin-4-ylmethyl)-phenyl]-[1,2,4]triazolo[1,5-a]pyridin-2-yl}-amide]
In vitro metabolic profile of Formula II (as % of total radioactivity) (hepatocytes of rat): at least 80%
In vitro metabolic profile of Formula II (as % of total radioactivity) (hepatocytes of rat; listed as drawing 10): 86%
In vitro metabolic profile of Formula II (as % of total radioactivity) (hepatocytes of dog): at least 80%
In vitro metabolic profile of Formula II (as % of total radioactivity) (hepatocytes of dog; listed as drawing 10): 93%
In vitro metabolic profile of Formula II (as % of total radioactivity) (hepatocytes of human): at least 80%
In vitro metabolic profile of Formula II (as % of total radioactivity) (hepatocytes of human; listed as drawing 10): 88%
AUC [1, 6]: 33300 ng·h/mL
AUC [2, 7]: 44900 ng·h/mL
AUC [3]: 19100 ng·h/mL
half-life [4]: 5 to 8 h
AUC [4, 8]: 128 ng·h/mL
AUC [4, 9]: 331 ng·h/mL
AUC [4, 10]: 735 ng·h/mL
AUC [4, 11]: 1690 ng·h/mL
AUC [4, 12]: 4500 ng·h/mL
half-life at 10 days [5]: 4 to 11 h
AUC ([5]; Formula II 25 mg BID): 346 ng·h/mL
AUC ([5]; Formula II 50 mg BID): 758 ng·h/mL
AUC ([5]; Formula II 100 mg BID): 2380 ng·h/mL
AUC ([5]; Formula II 200 mg QD): 4450 ng·h/mL
AUC ([5]; Formula II 300 mg QD): 4400 ng·h/mL
AUC ([5]; Formula II 450 mg QD): 10200 ng·h/mL
